Experimental findings from paper PMC8955853, “New Sorbicillinoids with Tea Pathogenic Fungus Inhibitory Effect from Marine-Derived Fungus Hypocrea jecorina H8” (Marine Drugs, 2022) are described below.

Values after ≈ are worked out from the molar mass of the structure shown. “Also recorded” adds a separate entry of the source. Where two headings read alike, the source gives them in different places.

Series [1] relates to Pestalotiopsis theae. The experiment in a line: Antifungal activity assay, growth inhibition of tea pathogenic fungus. It is filed as cell-based. Conditions: for IC50: Pseudopestalotiopsis theae, read-out: ED50, antifungal activity against Pestalotiopsis theae; for fold stronger anti-tea pathogenic fungus effect than hexaconazole: compared to positive control hexaconazole (24.25 ± 1.57 µg/mL). On the procedure: Compounds 1 to 11 were evaluated for antifungal activities by a paper disc inhibition assay.
Initial evaluations of the antifungal activity of the purified compounds were conducted against tea pathogenic fungus P. theae in six-well microplates as described by Xia Yan with certain modifications. The final concentrations of each compound in the wells were 80, 40, 20, 10, 5, and 2.5 µg/mL (two-fold dilutions). DMSO and hexaconazole were used as a blank control and positive control, respectively. The ED50 (μg/mL) values were calculated statistically using Probit analyses.

Series [2] deals with zebrafish embryos. The experiment in a line: Zebrafish embryotoxicity and developmental toxicity assay. Conditions: for effects on mortality rate and malformation of zebrafish: 0.625 μM for 24 h and 10 μM for 72 h (Figure 4c); for change of effect on zebrafish embryo mortality when treatment prolonged to 72 h: 72 h versus 24 h (Figure 4b). It is filed as in vivo. On the procedure: Figure 4 Embryotoxicity and developmental toxicity assay; 15 zebrafish embryos per condition were exposed to compounds at the concentrations of 10, 5, 2.5, 1.25, and 0.625 μM, and 0.1% DMSO was used as blank control. (a) The mortality rate of 24 embryo treated with compounds; (b) The mortality rate of 72 embryo treated with compounds; (c) The impact on the malformation of zebrafish treated with compounds) The statistics of 24 and 72 h mortality rate; © Morphology of 24 h embryo or 72 h zebrafish larvae treated with compounds or control.
Wild-type (AB strain) zebra fish (Danio rerio) were used in this test. Compounds 5, 6, 8, 9, and 10 were dissolved in DMSO (10 mM) and stored at −20 °C. Toxicity evaluations were analyzed regarding the anti-proliferative effects on embryos according to the literature. In brief, 15 zebrafish embryos per condition were exposed to compounds at the concentrations of 10, 5, 2.5, 1.25, and 0.625 μM, and 0.1% DMSO was used as the vehicle control. A Leica stereomicroscope was used to observe the embryos every 24 h.

Setting [3] is: tested at 80, 40, 20, 10, 5 and 2.5 µg/mL, Probit analysis.

Take `CCC12C(=O)OC(C)(C(=O)C(C)=C1CC(C)=O)C2CC(=O)C=CC=CCO` (stereo not drawn) [Compound 1, trichodermolide C]: the IC50 in series [1] (setting [3]) was more than 100 µg/mL.

As to `CC=CC=CC(O)CC1C2(C)OC(=O)C1(CC)C(CC(C)O)=C(C)C2=O` (stereo not drawn) [Compound 2, trichodermolide D], in series [1] (setting [3]), the IC50 was more than 100 µg/mL.

Regarding `CC=CC=CC(O)=C1C(=O)C2(C)C3C(=C(O)CC(O)C=CC)C(=O)C4(C)C1C1(C)OC4(O)C3(C)OC12O` (stereo not drawn) [Compound 3, 7,7′,9′-hydroxy-trichodimerol], the IC50 in series [1] is more than 100 µg/mL.

On to `Cc1cc(C(=O)CC(O)C(O)C(C)O)c(O)c(C)c1O` (stereo not drawn) [Compound 4, 1-(2,4-dihydroxy-3,5-dimethylphenyl)-3,4,5-trihydroxyhexan-1-one], for which the IC50 in series [1] (setting [3]) was more than 100 µg/mL.

As for `CC=CC=CC(O)=C1CC(C)(O)C2(O)OC3(C)C(O)=C(C)C(=O)C(=C(O)C=CC=CC)C3C2(C)C1=O` (stereo not drawn) [Compound 5, isobisvertinol A], the IC50 in series [1] (setting [3]) is 9.13 ± 1.25 µg/mL (≈ 18.3 µM). The “fold stronger anti-tea pathogenic fungus effect than hexaconazole” value in series [1] is approximately 3 fold. Also, in series [2], the “effects on mortality rate and malformation of zebrafish” value was “greater effects than other compounds”; the “change of effect on zebrafish embryo mortality when treatment prolonged to 72 h” value (shortened to “change of effect”) is listed as “did not change greatly”.

Take `C/C=C/CCC(=O)c1cc(C)c(O)c(C)c1O` [Compound 6, 2′,3′-dihydrosorbicillin]: the IC50 in series [1] (setting [3]) was 2.04 ± 1.24 µg/mL (≈ 8.71 µM). For the same compound, in series [2], the “change of effect” value is “did not change greatly”.

On to `C/C=C/C=C/C(=O)c1cc(C)c(O)cc1O` [Compound 7, 6-demethylsorbicillin], for which, in series [1] (setting [3]), the IC50 was more than 100 µg/mL.

Turning to `C/C=C/C=C/C(=O)c1cc(C)c(O)c(C)c1O` [Compound 8, sorbicillin], in series [1] (setting [3]), the IC50 came to 18.2 ± 1.29 µg/mL (≈ 78.4 µM). The zebrafish embryos killed result in series [2] (0.625 μM for 24 h) and in series [2] (10 μM for 72 h) was “more than 50%” each time. The “effects on mortality rate and malformation of zebrafish” value in series [2] is reported as “greater effects than other compounds”. For the same compound, the “mortality rate of zebrafish embryo” value in series [2] (0.625 μM, 72 h (Figure 4b)) is approximately 60%.

For `Cc1cc(C(=O)/C=C/C=C/CO)c(O)c(C)c1O` [Compound 9, (2E,4E)-1-(2,4-dihydroxy-3,5-dimethylphenyl)-6-hydroxyhexa-2,4-dien-1-one], the IC50 in series [1] (setting [3]) is 1.83 ± 1.37 µg/mL (≈ 7.37 µM). Further, in series [1], the “fold stronger anti-tea pathogenic fungus effect than hexaconazole” value is listed as 13 fold. Also, the “change of effect” value in series [2] is given as “did not change greatly”.

Consider `C/C=C/C=C/C(O)=C1\C[C@](C)(O)[C@]2(O)O[C@]3(C)C(O)=C(C)C(=O)/C(=C(O)/C=C/C=C/C)[C@@H]3[C@]2(C)C1=O` [Compound 11, bisvertinol], for which, in series [1] (setting [3]), the IC50 was more than 100 µg/mL.

With `CCCCC(O)(Cn1cncn1)c1ccc(Cl)cc1Cl` (stereo not drawn) [hexaconazole, reference compound], the IC50 in series [1] (setting [3]) was determined as 24.2 ± 1.57 µg/mL (≈ 77.2 µM).

Turning to trichodimerol [Compound 10], the “ED50, antifungal activity against Pestalotiopsis theae” value in series [1] (setting [3]) came to 4.68 ± 1.44 µg/mL. In addition, the “toxicity to zebrafish eggs, embryos or larvae (overall, in words)” value in series [2] (10, 5, 2.5, 1.25 and 0.625 μM, observed every 24 h) is “low toxicity; also recorded: much lower toxicity”. The “change of effect” value in series [2] is on record as “did not change greatly”.
